This passage reports absorption maximum results from the Deep4Chem optical property database.

The data set in a line: solvent given as SMILES.

For `COC(=O)c1ccc(/N=N/c2cc3c4c(c2)CCCN4CCC3)cc1`, where the note is “in CCOC(C)=O”, the absorption maximum stood at 474 nm.

As for `N#Cc1ccc2c(c1)CCc1nc(-c3ccc([N+](=O)[O-])cc3)c3c(c1-2)CCc1cc(C#N)ccc1-3`, the absorption maximum by setting is: (in C1CCOC1) 331 nm; (in CC#N) 349 nm; (in CCCCCC) 350 nm; (in CCOC(C)=O) 329 nm; (in CO) 333 nm; (in CS(C)=O) 360 nm. For the same compound, the absorption maximum was found to be 343 nm (in Cc1ccccc1) and 345 nm (in ClCCl).

Consider `N#Cc1c(N2CCCCC2)cc(-c2ccc3ccc4cccc5ccc2c3c45)c2c1-c1ccccc1C2=O`, for which the absorption maximum (in C1CCOC1) is 393 nm.

`c1ccc2c(c1)ncc1ccc3cnc4ccccc4c3c12` gave an absorption maximum (in CC#N) of 397 nm.

Consider `CCO[B-]1(OCC)n2c(C)cc(C)c2C(c2ccc(I)cc2)=C2C(C)=CC(C)=[N+]21`, for which the absorption maximum (in ClC(Cl)Cl) is 505 nm.

For `CC(=O)Nc1ccc(O)cc1`, the absorption maximum is, setting by setting: (in C1CCOC1) 293 nm; (in CC#N) 290 nm; (in CCCCO) 290 nm; (in CO) 290 nm; (in CS(C)=O) 293 nm.

Turning to `COc1ccc(-c2csc(/C(C#N)=C/c3ccc(C#N)cc3)n2)cc1`, the absorption maximum was found to be 389 nm (in CC#N); 395 nm (in CCO); 395 nm (in CN(C)C=O); 400 nm (in Cc1ccccc1); 396 nm (in ClCCl).

`CN1C(C(=O)Nc2ccccn2)=C(O)c2sccc2S1(=O)=O` had an absorption maximum (in C1COCCO1) of 344 nm; an absorption maximum (in CC#N) of 355 nm; an absorption maximum (in CCCCO) of 350 nm; an absorption maximum (in CCCO) of 350 nm; an absorption maximum (in CCO) of 351 nm; an absorption maximum (in CCOC(C)=O) of 342 nm. Moreover, the absorption maximum (in CO) turned out to be 354 nm.

In turn, `Cc1cc(O)c(C(=O)/C=C/c2ccc(Cl)cc2)c(=O)o1` displayed an absorption maximum (in CC#N) of 357 nm and an absorption maximum (in ClCCl) of 360 nm.

Where the note is “in C1CCOC1”, `CN(C)c1ccc(C(=Cc2ccc(C=O)cc2)c2ccc(N(C)C)cc2)cc1` came in with an absorption maximum of 407 nm.

Compound `Cc1nnc(-c2cc(-n3c4ccccc4c4ccccc43)c(-n3c4ccccc4c4ccccc43)cc2-c2nnc(C)o2)o1` returned an absorption maximum (in ClCCl) of 353 nm.

In the case of `CN1C(=CC2=C([O-])C(=Cc3oc4ccccc4[n+]3C)C2=O)C(C)(C)c2ccccc21`, under “in ClC(Cl)Cl”, the absorption maximum is 608 nm.

As to `Cc1c(COC(=O)Cc2c[nH]c3ccccc23)n2c(OCC(=O)Cc3c[nH]c4ccccc34)c(C)c(=O)n2c1=O`, the absorption maximum (in CCO) is 382 nm.

For the setting “in O”, `CC[n+]1c(-c2ccccc2)c2cc(N)ccc2c2ccc(-n3cccc3)cc21` registered an absorption maximum of 454 nm.

Under “in ClCCl”, `O=C1C(=c2c(=O)c3c4ccccc4cc4cc5ccccc5c2c43)C(=O)c2ccccc21` registered an absorption maximum of 518.56 nm.

On to `CC(C)c1cccc(C(C)C)c1N1C(=O)c2ccc3cc4c(cc5ccc6c7c(ccc4c57)C(=O)N(c4c(C(C)C)cccc4C(C)C)C6=O)c4ccc(c2c34)C1=O`, for which the absorption maximum (in ClCCl) came to 648 nm.

As to `CCn1c(-c2ccc(-c3cccc4ccccc34)cc2)c(-c2ccc3ccccc3c2)c(-c2ccc3ccccc3c2)c1-c1ccc(-c2cccc3ccccc23)cc1`, under “in CCOC(C)=O”, the absorption maximum worked out at 292 nm.

On to `N#Cc1c(-n2c3ccc(Br)cc3c3cc(Br)ccc32)c(-n2c3ccc(Br)cc3c3cc(Br)ccc32)c(C#N)c(-n2c3ccc(Br)cc3c3cc(Br)ccc32)c1-n1c2ccc(Br)cc2c2cc(Br)ccc21`, for which the absorption maximum (in Cc1ccccc1) is 339 nm.

Take `C[Si](C)(C)c1ccc2ccc3c([Si](C)(C)C)ccc4ccc1c2c43`: the absorption maximum by setting is: (in CCCCCC) 350 nm; (in CO) 349 nm; (in ClCCl) 352 nm.

Consider `c1ccc2nc3c(nc2c1)c1c2n3CCCN2CCCC1`, for which the absorption maximum runs as follows: (in CC#N) 419 nm; (in CCCCCC) 408 nm; (in CS(C)=O) 441 nm.

`c1ccc2c(c1)ccc1ccc3ccc4ccc5ccccc5c4c3c12`: the absorption maximum (in ClCCl) is on record as 435 nm.

As to `O=C1c2cccc3c(-n4c5ccccc5c5ccccc54)ccc(c23)C(=O)N1C1CCCCC1`, the absorption maximum is 407 nm (in C1CCOC1), 399 nm (in CCCCCC), 402 nm (in ClC(Cl)Cl) and 410 nm (in ClCCl).

Regarding `Oc1ccccc1/C=N/N=C/c1ccccc1O`, the absorption maximum worked out at 355 nm (in CC#N); 363 nm (in CC(C)CCCC(C)CCCC(C)CCCCC(C)CCCC(C)CCCC(C)C); 361 nm (in CCCCCC); 362 nm (in CCCCCCCCC); 363 nm (in CCCCCCCCCCCCCCCC); 359 nm (in CCCCl). The absorption maximum reads like this: (in CCN(CC)CC) 359 nm; (in CCO) 356 nm; (in CCOCC) 358 nm; (in CO) 355 nm; (in O=C(O)C(F)(F)F) 398 nm; (in OC(C(F)(F)F)C(F)(F)F) 345 nm. Also, the absorption maximum reads like this: (in OCC(F)(F)F) 350 nm; (in OCCO) 357 nm.

As for `c1cc2ccc3cccc4c(-c5cc(-c6nccs6)nc(-c6nccs6)c5)cc(c1)c2c34`, the absorption maximum reads like this: (in CC#N) 367 nm; (in CCCCCC) 344 nm; (in CO) 365 nm; (in ClC(Cl)Cl) 351 nm.

For `COc1ccc(N(c2ccc(OC)cc2)c2cc(N(c3ccc(OC)cc3)c3ccc(OC)cc3)c3ccc4cc(C(C)(C)C)cc5ccc2c3c54)cc1`, the absorption maximum (in ClCCl) was 434 nm.

`CCN(CC)c1ccc2cc(-c3csc(N)c3C#N)c(=O)oc2c1`: the absorption maximum is reported as 403 nm (in C1CCOC1); 406 nm (in CO); 406 nm (in CS(C)=O); 403 nm (in Cc1ccccc1); 407 nm (in ClCCl).

As for `Cc1cc(C)c(C2=C3C=CC=[N+]3[B-]3(c4ccc5ccc6cccc7ccc4c5c67)Oc4cc(O)cc5c6ccc(C)cc6c6cc2n3c6c45)c(C)c1` (stereo not given), the absorption maximum (in ClC(Cl)Cl) is listed as 647 nm.

For the compound `CN(C)c1cc2oc3cc(N(C)C)c(F)cc3c(=O)c2cc1F`, the absorption maximum (in CCO) came out at 378 nm.

Take `CC(C)(C)c1ccc(C(C)(C)C)c(N2C(=O)c3cccc4c(-c5ccc(-c6ccccc6)s5)ccc(c34)C2=O)c1`: the absorption maximum (in CO) is recorded as 403 nm, the absorption maximum (in CS(C)=O) came out at 405 nm and the absorption maximum (in Cc1ccccc1) is given as 398 nm.

Turning to `Cn1cccc1-c1ccc(C#N)cc1`, the absorption maximum runs as follows: (in C1CCOC1) 326 nm; (in CC#N) 322 nm; (in CCCCCC) 317 nm; (in CCCCOCCCC) 321 nm; (in CCOCC) 321 nm.

`O=C(c1cc(F)c(O)cc1F)c1cc(F)c(O)cc1F` came in with an absorption maximum (in CCO) of 306 nm.

For `CCOc1ccc2c(-c3nc(-c4ccccc4F)no3)cc(=O)oc2c1`, the absorption maximum reads like this: (in CCO) 345 nm; (in ClC(Cl)Cl) 393 nm.

As to `Cc1ccc2c(c1)c(C#N)c(C#N)c1cc(C)ccc12`, the absorption maximum (in ClC(Cl)Cl) is 343 nm.

In the case of `CC1=[N+]2C(=C(c3c4ccccc4cc4ccccc34)c3ccc(/C=C/C(C)(C)C)n3[B-]2(F)F)C=C1`, the absorption maximum (in ClC(Cl)Cl) is on record as 549 nm.
